# Patent publication US20230203043A1, “NOVEL IMIDAZOPYRAZINE DERIVATIVES” (Hoffmann-La Roche Inc., priority 2020, published 2023)
# Structures can show the parent of a compound that is named as a salt. Where two headings read alike, the source gives them in different places.
# Tested on: Acinetobacter baumannii ATCC17961
# Experiment: Antimicrobial susceptibility testing: 90% growth inhibitory concentration (IC90) determination in Iso-Sensitest broth, OD600 growth
# Assay type: cell-based
# Settings: Acinetobacter baumannii, ATCC17961, 16 h
# Procedure, shortened: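 Twofold compound dilutions (e.g. 50 to 0.097 μM final) in Iso-Sensitest broth with ~5×10^(5) CFU/ml, 35±2 °C. OD600 read every 20 min over 16 h; IC90 from growth inhibition during logarithmic phase.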
# [1] = strain ATCC 17961, OD600 growth over 16 h, read-out: A. baumannii ATCC 17961 IC90
# [2] = read-out: A. baumannii ATCC 17961 IC90 (uM), strain ATCC 17961, OD600 growth over 16 h
IC90 [1],SMILES,IC90 [2]
0.678 µM,"C#CCn1cc(-c2cnc3c(Nc4ccc(C(=O)N5CCN(C(=O)C6(O)CCNCC6)CC5)c(CC)c4)nccn23)c(C(F)F)n1 [Example 755, (4-(4-((3-(3-(difluoromethyl)-1-(prop-2-yn-1-yl)-1H-pyrazol-4-yl)imidazo[1,2-a]pyrazin-8-yl)amino)-2-ethylbenzoyl)piperazin-1-yl)(4-hydroxypiperidin-4-yl) methanone]",–
0.693 µM,"CCc1cc(Nc2nccn3c(-c4c[nH]nc4C(F)(F)F)cnc23)ccc1C(=O)NCCCNC(=O)[C@H](C)NC(=O)C(F)(F)F [Example 759, (S)-2-ethyl-N-(3-(2-(2,2,2-trifluoroacetamido)propanamido)propyl)-4-((3-(3-(trifluoromethyl)-1H-pyrazol-4-yl)imidazo[1,2-a]pyrazin-8-yl)amino) benzamide]",–
0.722 µM,"CCc1cc(Nc2nccn3c(-c4c[nH]nc4C(F)(F)F)cnc23)ccc1C(=O)N[C@H](C)CNC(=O)[C@@H]1CCCN1 [Example 762, (S)-N-((R)-2-(2-ethyl-4-((3-(3-(trifluoromethyl)-1H-pyrazol-4-yl)imidazo[1,2-a]pyrazin-8-yl)amino)benzamido)propyl) pyrrolidine-2-carboxamide]",–
0.75 µM,"O=C(c1ccc(Nc2nccn3c(-c4cn(C(F)F)nc4C(F)(F)F)cnc23)cc1Cl)N1CC2(C1)CN(C(=O)[C@@H]1CCCN1)C2 [Example 763, (S)-(2-chloro-4-((3-(1-(difluoromethyl)-3-(trifluoromethyl)-1H-pyrazol-4-yl)imidazo[1,2-a]pyrazin-8-yl)amino)phenyl)(6-prolyl-2,6-diazaspiro[3.3]heptan-2-yl)methanone]",–
0.809 µM,"CCc1cc(Nc2nccn3c(-c4cn(CC(F)F)nc4C(F)F)cnc23)ccc1C(=O)N1CCN(C(=O)C2(O)CCNCC2)CC1 [Example 764, (4-(4-((3-(1-(2,2-difluoroethyl)-3-(difluoromethyl)-1H-pyrazol-4-yl)imidazo[1,2-a]pyrazin-8-yl)amino)-2-ethylbenzoyl)piperazin-1-yl)(4-hydroxypiperidin-4-yl)methanone]",–
0.903 µM,"CCc1cc(Nc2nccn3c(-c4cn(CC(F)F)nc4C(F)F)cnc23)ccc1C(=O)N1CCN(C(=O)CN)CC1 [Example 766, 2-amino-1-(4-(4-((3-(1-(2,2-difluoroethyl)-3-(difluoromethyl)-1H-pyrazol-4-yl)imidazo[1,2-a]pyrazin-8-yl)amino)-2-ethylbenzoyl)piperazin-1-yl)ethan-1-one]",–
0.904 µM,"CCc1cc(Nc2nccn3c(-c4cn(COC)nc4C(F)F)cnc23)ccc1C(=O)N1CCN(C(=O)[C@H](C)N)CC1 [Example 767, (S)-2-amino-1-(4-(4-((3-(3-(difluoromethyl)-1-(methoxymethyl)-1H-pyrazol-4-yl)imidazo[1,2-a]pyrazin-8-yl)amino)-2-ethylbenzoyl)piperazin-1-yl)propan-1-one]",–
0.916 µM,"CCc1cc(Nc2nccn3c(-c4cn(CC(F)F)nc4C(F)F)cnc23)ccc1C(=O)N1CCN(C(=O)[C@H](N)C(C)C)CC1 [Example 768, (R)-2-amino-1-(4-(4-((3-(1-(2,2-difluoroethyl)-3-(difluoromethyl)-1H-pyrazol-4-yl)imidazo[1,2-a]pyrazin-8-yl)amino)-2-ethylbenzoyl)piperazin-1-yl)-3-methylbutan-1-one]",–
0.928 µM,"Cc1cc(Nc2nccn3c(-c4cn(CC#N)nc4C(F)(F)F)cnc23)cc(F)c1C(=O)N[C@H](C)CNC(=O)[C@@H]1C[C@@H](O)CN1 [Example 769, (2S,4R)-N-((R)-2-(4-(3-(1-(cyanomethyl)-3-(trifluoromethyl)-1H-pyrazol-4-yl)imidazo[1,2-a]pyrazin-8-yl)amino)-2-fluoro-6-methylbenzamido)propyl)-4-hydroxypyrrolidine-2-carboxamide formate]",–

# Second part, the compound before the results:
SMILES,IC90 [1],IC90 [2]
"CCc1cc(Nc2nccn3c(-c4c[nH]nc4C(F)(F)F)cnc23)ccc1C(=O)NCC(=O)N1CCNCC1 [Example 753, 2-ethyl-N-(2-oxo-2-piperazin-1-yl-ethyl)-4-[[3-[3-(trifluoromethyl)-1H-pyrazol-4-yl]imidazo[1,2-a]pyrazin-8-yl]amino] benzamide formate]",0.659 µM,–
"CCc1cc(Nc2nccn3c(-c4cn(CC#N)nc4C(F)(F)F)cnc23)ccc1C(=O)NCCCNC(=O)[C@@H]1C[C@@H](O)CN1 [Example 754, (2S,4R)-N-(3-(4-((3-(1-(cyanomethyl)-3-(trifluoromethyl)-1H-pyrazol-4-yl)imidazo[1,2-a]pyrazin-8-yl)amino)-2-ethylbenzamido)propyl)-4-hydroxypyrrolidine-2-carboxamide]",0.671 µM,–
"CCc1cc(Nc2nccn3c(-c4c[nH]nc4C(F)(F)F)cnc23)ccc1C(=O)NCC(=O)N1CCC(N)CC1 [Example 756, N-[2-(4-amino-1-piperidyl)-2-oxo-ethyl]-2-ethyl-4-[[3-[3-(trifluoromethyl)-1H-pyrazol-4-yl]imidazo[1,2-a]pyrazin-8-yl]amino]benzamide formate]",–,0.679 µM
"CCc1cc(Nc2nccn3c(-c4cn(CC#N)nc4C(F)(F)F)cnc23)ccc1C(=O)NCC(=O)N[C@@H]1CCNC1 [Example 757, 4-[[3-[1-(cyanomethyl)-3-(trifluoromethyl)pyrazol-4-yl]imidazo[1,2-a]pyrazin-8-yl]amino]-2-ethyl-N-[2-oxo-2-[[(3R)-pyrrolidin-3-yl]amino]ethyl]benzamide formate]",–,0.689 µM
"CCc1cc(Nc2nccn3c(-c4cn(CC#N)nc4C(F)(F)F)cnc23)ccc1C(=O)NCC(=O)N[C@H]1CCNC1 [Example 758, 4-[[3-[1-(cyanomethyl)-3-(trifluoromethyl)pyrazol-4-yl]imidazo[1,2-a]pyrazin-8-yl]amino]-2-ethyl-N-[2-oxo-2-[[(3S)-pyrrolidin-3-yl]amino]ethyl]benzamide formate]",–,0.693 µM
"Cc1cc(Nc2nccn3c(-c4cn(CC#N)nc4C(F)(F)F)cnc23)ccc1C(=O)NCC(=O)NCCN [Example 760, N-[2-(2-aminoethylamino)-2-oxo-ethyl]-4-[[3-[1-(cyanomethyl)-3-(trifluoromethyl)pyrazol-4-yl]imidazo[1,2-a]pyrazin-8-yl]amino]-2-methyl-benzamide formate]",–,0.718 µM
"Cc1cc(Nc2nccn3c(-c4cn(CC#N)nc4C(F)(F)F)cnc23)ccc1C(=O)N[C@H](C)C(=O)N1CC[C@@H](N)C1 [Example 761, N-[(1R)-2-[(3R)-3-aminopyrrolidin-1-yl]-1-methyl-2-oxo-ethyl]-4-[[3-[1-(cyanomethyl)-3-(trifluoromethyl)pyrazol-4-yl]imidazo[1,2-a]pyrazin-8-yl]amino]-2-methyl-b enzamide formate]",–,0.721 µM
"CCc1cc(Nc2nccn3c(-c4cn(CC#N)nc4C(F)(F)F)cnc23)ccc1C(=O)NCC(=O)NCCN [Example 765, N-[2-(2-aminoethylamino)-2-oxo-ethyl]-4-[[3-[1-(cyanomethyl)-3-(trifluoromethyl)pyrazol-4-yl]imidazo[1,2-a]pyrazin-8-yl]amino]-2-ethyl-benzamide]",0.895 µM,–
"CCc1cc(Nc2nccn3c(-c4cn(CCF)nc4C(F)F)cnc23)ccc1C(=O)N1CCN(C(=O)C2CCNCC2)CC1 [Example 770, (4-(4-((3-(3-(difluoromethyl)-1-(2-fluoroethyl)-1H-pyrazol-4-yl)imidazo[1,2-a]pyrazin-8-yl)amino)-2-ethylbenzoyl)piperazin-1-yl)(piperidin-4-yl)methanone formate]",–,0.929 µM
